Values quoted from earlier work, collected in patent US20230372421A1, “IMMATURE POMEGRANATE EXTRACT FORMULATIONS” (CONSIGLIO NAZIONALE DELLE RICERCHE, priority 2020, published 2023).

Tested on: cells of neuronal origin
Conditions: Jin, Yu, Wang & Xu, 2016

Question: Which anticancer properties does the source give for O=C1O[C@H]2[C@H](OC(=O)c3cc(O)c(O)c(O)c3)O[C@@H]3COC(=O)c4cc(O)c(O)c(O)c4-c4c(cc(O)c(O)c4O)C(=O)O[C@H]2[C@@H]3OC(=O)c2cc(O)c(O)c3c2C2C1=CC(=O)C(O)(O)C2(O)O3 (stereo partly shown) [granatin B] here?
Answer: important anticancer properties
